Literature values, collected in patent publication US12274713B2, “Nutraceutical composition comprising a water-soluble fullerene and a ketone” (priority 2021, dated 2025).

System: tumor growth and metastasis
Details: Prylutska et al.

## c12c3c4c5c1c1c6c7c2c2c8c3c3c9c4c4c%10c5c5c1c1c6c6c%11c7c2c2c7c8c3c3c8c9c4c4c9c%10c5c5c1c1c6c6c%11c2c2c7c3c3c8c4c4c9c5c1c1c6c2c3c41 [60-carbon fullerene, Buckminsterfullerene]
  tumor growth and metastasis: inhibit tumor growth and metastasis
